Measurements published in BindingDB's records for doi:10.1021/acs.jmedchem.5b01516 (Centre Hospitalier Universitaire Vaudois (Chuv), 2016).

Biological target: Presenilin-1 (Homo sapiens, UniProt P49768)
Test: Inhibition of gamma secretase (unknown origin)

Structure (SMILES): CC(C)[C@H](O)C(=O)N[C@@H](C)C(=O)NC1C(=O)N(C)CCc2ccccc21 (stereo partly drawn) [(2S)-2-hydroxy-3-methyl-N-[(1S)-1-{[(1S)-3-methyl-2-oxo-2,3,4,5-tetrahydro-1H-3-benzazepin-1-yl]carbamoyl}ethyl]butanamide]
- IC50: 11 nM
